Experimental data as given in US20240398806A1, “Compositions For and Methods of Treating and/or Preventing Pain” (Duke University, priority 2021, published 2024).
Like-named read-outs stand apart in the source and are kept apart here.

Assays:
NMDAR = type: cell-based; settings: Arrb2-KO mice; NMDA 50 mM as printed
Method: In FIG. 9B-FIG. 9D. *p<0.05 as determined by a two-way or one-way ANOVA.
Spinal cord NMDAR plays a critical role in driving inflammatory and neuropathic pain (Woolf C J, et al. (2000) Science. 288(5472):1765-1769). Using spinal cord slice preparations, NMDA (50 mM) induced inward currents in spinal cord out lamina II (IIo) neurons were recorded in WT and Arrb2-KO mice. […] Similarly, duration of intrathecal (i.t.) NMDA-induced spontaneous pain was also potentiated in the KO mice (FIG. 9C).

NTSR2 = biological target: T1, NTSR2 (Homo sapiens, UniProt O95665); assay: Cellular assay of β-arrestin-2 translocation in cells expressing NTSR2; type: cell-based
T1 construct: expressed in transfected cells; host or cells: HEK293 cells
T1 sequence (O95665 whole entry, species assumed): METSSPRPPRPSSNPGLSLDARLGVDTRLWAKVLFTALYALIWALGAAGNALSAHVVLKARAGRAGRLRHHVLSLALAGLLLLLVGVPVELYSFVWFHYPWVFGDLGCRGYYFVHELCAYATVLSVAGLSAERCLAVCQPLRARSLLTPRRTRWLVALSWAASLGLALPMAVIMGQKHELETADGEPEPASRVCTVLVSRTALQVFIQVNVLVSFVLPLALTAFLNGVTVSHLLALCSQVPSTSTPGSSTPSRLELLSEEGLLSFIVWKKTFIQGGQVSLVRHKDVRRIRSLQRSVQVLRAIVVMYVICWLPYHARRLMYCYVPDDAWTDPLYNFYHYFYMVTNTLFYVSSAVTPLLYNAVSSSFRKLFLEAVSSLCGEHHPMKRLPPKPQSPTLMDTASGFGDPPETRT
Method: (§1) First, using cellular assays, whether IND candidates such as SBI-810 are similar or better than SBI-553 as β-arrestin biased agonist at NTSR1. is assessed. The chemical entities used in this work were synthesized and validated. However, routine validation of the profile of these compounds is performed routinely using both cellular and in vivo assays. For example, HEK293 cells that express either the NTSR1 or NTSR2 are used to assess the functional profile of the various chemical probes. In addition, a series of genetically engineered mouse lines are used to provide an in vivo validation of novel chemical entities for their abilities to module behaviors in these animals.
(§2) Fourth, cellular assays are used to establish that IND ready analogs like SBI-810 are still selective for the NTSR1 rather than NTSR2. The specificity of the lead compounds toward NTSR1. NTSR2. and β-arrestin-2 are tested in respective cellular assays. More specifically, cells expressing either NTSR1 or NTSR2 are used to assess the function of various compound. […] This translocation is not observed in cells expressing NTSR2.
(§3) Fourth, genetically engineered mice are used to assess the effects and mechanisms of novel ligands. The specificity of the lead compounds toward NTSR1, NTSR2, and β-arrestin-2 dependent signaling is examined. […]

NTSR1 [1] = biological target: T2, NTSR1 (Homo sapiens, UniProt P30989); assay: Cellular assay of β-arrestin-2 translocation in cells expressing NTSR1; type: cell-based; set-up: expressed in transfected cells; host or cells: HEK293T cell membranes
T2 sequence (P30989 whole entry): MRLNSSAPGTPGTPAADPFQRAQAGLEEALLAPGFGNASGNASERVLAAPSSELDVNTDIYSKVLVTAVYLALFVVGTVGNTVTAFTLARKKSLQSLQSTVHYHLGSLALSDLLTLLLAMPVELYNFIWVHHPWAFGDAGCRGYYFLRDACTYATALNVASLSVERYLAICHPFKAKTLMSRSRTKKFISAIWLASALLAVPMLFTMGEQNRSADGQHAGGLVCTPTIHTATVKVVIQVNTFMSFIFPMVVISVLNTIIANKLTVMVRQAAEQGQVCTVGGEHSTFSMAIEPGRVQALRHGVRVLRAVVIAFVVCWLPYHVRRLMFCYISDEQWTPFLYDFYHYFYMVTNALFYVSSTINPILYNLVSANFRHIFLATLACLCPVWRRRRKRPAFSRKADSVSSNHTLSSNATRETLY
Method: as §1, §2, §3

[2] = Pain models with systemic (IP or oral) administration; type: in vivo, mice and rats
[3] = Pharmacokinetics in monkey (IV and PO); type: in vivo; settings: for AUC: monkey; for MRT last: read-out: MRT0-last
NTSR1 [4] = biological target: T2, NTSR1; assay: [3H]SBI-553 saturation binding to NTSR1-containing HEK293T cell membranes; set-up: expressed in transfected cells; host or cells: HEK293T cell membranes; settings: by the named competitor
lamina IIo neurons = system: lamina IIo neurons; set-up: dose or concentration left out as unconfirmed; settings: slices of PTX-treated mice

Q: Which “Block of the increase in NMDA current amplitude caused by Arrb2 deficiency” value (NMDAR) does the source give for `C[C@@H](CN1CCC(Cc2ccccc2)CC1)[C@@H](O)c1ccc(O)cc1` [Ro25] here?
A: dose-dependently blocked

Q: For `COc1ccccc1C1CCN(c2nc(C3(C)CC3)nc3ccc(N(C)CCO)cc23)CC1` [SBI-810], which “Translocation of β-arrestin-2 to intracellular compartments” value (NTSR2) is on record?
A: not observed

Q: What about the “Translocation of β-arrestin-2 to intracellular compartments” value (NTSR1 [1]) of the same molecule?
A: demonstrate translocation of β-arrestin-2

Q: What about the “Pain reduction compared with SBI-553” value [2] of the same molecule?
A: more effective in reducing pain than SBI-553

Q: What about the Co ([3]; Monkey, IV 5 mg/kg) of the same molecule?
A: 4702 ng/mL

Q: And the T2/2 ([3]; Monkey, IV 5 mg/kg)?
A: 6.54 h

Q: What about the CI ([3]; Monkey, PO 20 mg/kg) of the same molecule?
A: 0.312 L/h/kg

Q: And the Co ([3]; Monkey, PO 20 mg/kg)?
A: 314 ng/mL

Q: What about the Oral availability ([3]; compared with SBI-553) of the same molecule?
A: enhanced oral availability

Q: And the Levels in plasma ([3]; following i.v. and p.o. dosing)?
A: good levels in plasma

Q: What about the AUC ([3]; plasma, iv, 5 mg/kg, Monkey, IV 5 mg/kg, read-out: AUCo-inf) of the same molecule?
A: 4.34 µg·h/mL

Q: What about the AUC ([3]; plasma, iv, 5 mg/kg, Monkey, IV 5 mg/kg, read-out: AUCo-last) of the same molecule?
A: 4.21 µg·h/mL

Q: What about the AUC ([3]; plasma, po, 20 mg/kg, Monkey, PO 20 mg/kg, read-out: AUCo-inf) of the same molecule?
A: 2.23 µg·h/mL

Q: What about the AUC ([3]; plasma, po, 20 mg/kg, Monkey, PO 20 mg/kg, read-out: AUCo-last) of the same molecule?
A: 2.12 µg·h/mL

Q: What about the clearance ([3]; plasma, Monkey, IV 5 mg/kg) of the same molecule?
A: 1.15 L/h/kg

Q: And the MRT last ([3]; plasma, Monkey, IV 5 mg/kg)?
A: 3.4 h

Q: And the Vd ([3]; plasma, Monkey, IV 5 mg/kg, read-out: Vdss)?
A: 5 L/kg

Q: What about the half-life ([3]; plasma, Monkey, PO 20 mg/kg) of the same molecule?
A: 4 h

Q: And the MRT last ([3]; plasma, Monkey, PO 20 mg/kg)?
A: 8 h

Q: Which “Displacement of [3H]SBI-553 from NTSR1” value (NTSR1 [4]) does the source give for `COc1cccc(OC)c1-c1cc(C(=O)NC2(C(=O)O)C3CC4CC(C3)CC2C4)nn1-c1ccc(C(=O)N(C)CCCN(C)C)cc1C(C)C` (stereo not drawn) [SR142948A, reference compound] here?
A: not displaced

Q: Which “Excitatory synaptic transmission (sEPSCs) in lamina IIo neurons” value (lamina IIo neurons) does the source give for `CN1CC[C@]23c4c5ccc(O)c4O[C@H]2[C@@H](O)C=C[C@H]3[C@H]1C5` [morphine, reference compound] here?
A: did not produce significant inhibition
